Data taken from ChEMBL document CHEMBL1201862, “PubChem BioAssay data set” (2004).
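Interpolation was linear, between the two tested concentrations surrounding the appropriate level; five concentrations were tested over 48 hours in 96-well plates. GI50: concentration for 50% inhibition of growth.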 Calls of active or inactive are those of the source. Cut-off read from the data, not from the text of the source: active = GI50 up to about 1.1 µM and inactive = higher.

Assays:
Assay in all cases: NCI anticancer screen, dose series, 48 h
U-251 = test system: U-251
SF-295 = test system: SF-295
786-0 = test system: 786-0
SK-OV-3 = test system: SK-OV-3
SR = test system: SR
SK-MEL-5 = test system: SK-MEL-5
COLO 205 = test system: COLO 205
SNB-19 = test system: SNB-19
NCI-H23 = test system: NCI-H23
SNB-75 = test system: SNB-75
IGROV-1 = test system: IGROV-1
SK-MEL-28 = test system: SK-MEL-28
UACC-257 = test system: UACC-257
MOLT-4 = test system: MOLT-4
OVCAR-8 = test system: OVCAR-8
HCT-15 = test system: HCT-15
KM12 = test system: KM12

CCCOP1(=O)C=C(C)C(Cl)=C(C)C1 (configuration not stated)
GI50 (U-251): 23.2 µM (inactive) | GI50 (SF-295): 25.2 µM (inactive) | GI50 (786-0): 16.9 µM (inactive) | GI50 (SK-OV-3): 38.3 µM (inactive) | GI50 (SR): 17.9 µM (inactive) | GI50 (SK-MEL-5): 18.7 µM (inactive) | GI50 (COLO 205): 11.2 µM (inactive) | GI50 (SNB-19): > 100 µM (inactive) | GI50 (NCI-H23): 16.9 µM (inactive) | GI50 (SNB-75): 22.6 µM (inactive) | GI50 (IGROV-1): 34.6 µM (inactive) | GI50 (SK-MEL-28): 18.3 µM (inactive) | GI50 (UACC-257): 17.7 µM (inactive) | GI50 (MOLT-4): 17.6 µM (inactive) | GI50 (OVCAR-8): 27 µM (inactive) | GI50 (HCT-15): 20 µM | GI50 (KM12): 19.1 µM (inactive)

CN(CC1NCCCC1O)C12CC3CC(CC(C3)C1)C2 (configuration not stated)
GI50 (U-251): > 100 µM (inactive) | GI50 (SF-295): > 100 µM (inactive) | GI50 (786-0): > 100 µM (inactive) | GI50 (SK-OV-3): > 100 µM (inactive) | GI50 (COLO 205): > 100 µM (inactive) | GI50 (SNB-19): > 100 µM (inactive) | GI50 (NCI-H23): > 100 µM (inactive) | GI50 (IGROV-1): > 100 µM (inactive) | GI50 (UACC-257): > 100 µM (inactive) | GI50 (MOLT-4): > 100 µM (inactive) | GI50 (OVCAR-8): > 100 µM (inactive) | GI50 (HCT-15): > 100 µM | GI50 (KM12): > 100 µM (inactive)

NC(=S)N/N=C1\C(=O)N(CCc2ccccc2)C(=O)C1C(=O)NCCc1ccccc1 (configuration not stated)
GI50 (U-251): > 100 µM (inactive) | GI50 (SF-295): > 100 µM (inactive) | GI50 (786-0): > 100 µM (inactive) | GI50 (SK-OV-3): > 100 µM (inactive) | GI50 (SK-MEL-5): > 100 µM (inactive) | GI50 (COLO 205): > 100 µM (inactive) | GI50 (SNB-19): > 100 µM (inactive) | GI50 (NCI-H23): > 100 µM (inactive) | GI50 (SNB-75): 20.7 µM (inactive) | GI50 (IGROV-1): > 100 µM (inactive) | GI50 (SK-MEL-28): > 100 µM (inactive) | GI50 (UACC-257): > 100 µM (inactive) | GI50 (OVCAR-8): > 100 µM (inactive) | GI50 (HCT-15): > 100 µM | GI50 (KM12): > 100 µM (inactive)

CC1=C(C(=O)Nc2ccccc2)C(c2ccc(C(C)C)cc2)C(C(=O)Nc2ccccc2)=C(C)N1
GI50 (U-251): 16 µM (inactive) | GI50 (SF-295): 37.9 µM (inactive) | GI50 (786-0): 15 µM (inactive) | GI50 (SK-OV-3): 22.9 µM (inactive) | GI50 (SR): 10.6 µM (inactive) | GI50 (SK-MEL-5): 12.9 µM (inactive) | GI50 (COLO 205): 12.9 µM (inactive) | GI50 (SNB-19): 29.4 µM (inactive) | GI50 (NCI-H23): 20 µM (inactive) | GI50 (SNB-75): 18.7 µM (inactive) | GI50 (IGROV-1): 23.2 µM (inactive) | GI50 (SK-MEL-28): 22.3 µM (inactive) | GI50 (MOLT-4): 4.86 µM (inactive) | GI50 (OVCAR-8): 22.3 µM (inactive) | GI50 (HCT-15): 14.8 µM | GI50 (KM12): 22.2 µM (inactive)

C[C@]12CC[C@H](O)CC1CCC[C@@H]2O (some centres not stated)
GI50 (U-251): > 100 µM (inactive) | GI50 (SF-295): > 100 µM (inactive) | GI50 (786-0): > 100 µM (inactive) | GI50 (SK-OV-3): > 100 µM (inactive) | GI50 (SK-MEL-5): > 100 µM (inactive) | GI50 (COLO 205): > 100 µM (inactive) | GI50 (SNB-19): > 100 µM (inactive) | GI50 (NCI-H23): > 100 µM (inactive) | GI50 (SNB-75): > 100 µM (inactive) | GI50 (IGROV-1): > 100 µM (inactive) | GI50 (SK-MEL-28): > 100 µM (inactive) | GI50 (UACC-257): > 100 µM (inactive) | GI50 (MOLT-4): > 100 µM (inactive) | GI50 (OVCAR-8): > 100 µM (inactive) | GI50 (HCT-15): > 100 µM | GI50 (KM12): > 100 µM (inactive)
